Measured values as given in patent publication US20230416329A1, “A PEPTIDE WITH DISULFIDE BONDS AND INHIBITORY ACTIVITY AGAINST SERINE PROTEASES, DERIVED HYBRID PEPTIDES THEREOF, AND USES THEREOF” (INSTITUTE OF MATERIA MEDICA , CHINESE ACADEMY OF MEDICAL …, priority 2020, published 2023).
Where two headings read alike, the source gives them in different places. Each block holds one compound with its values, some of them ahead of it. Bridge positions count the residues as written; N and C are the ends. Peptide text beside a SMILES is read from it.

Biological target: T1, bovine trypsin (Bos taurus, UniProt P00760)
T1 sequence (P00760 24-246): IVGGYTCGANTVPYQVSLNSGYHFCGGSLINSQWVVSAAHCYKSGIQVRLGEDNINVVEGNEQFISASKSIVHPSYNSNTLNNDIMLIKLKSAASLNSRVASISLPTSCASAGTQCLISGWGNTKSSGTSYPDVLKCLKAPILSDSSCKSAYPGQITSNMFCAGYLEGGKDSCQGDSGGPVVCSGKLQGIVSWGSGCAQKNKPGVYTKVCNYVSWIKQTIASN
Assay: Trypsin inhibitory activity of peptides (BApNA hydrolysis, OD405; IC50, Ki, residual activity)
Type: biochemical
In short: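 Trypsin (50 nM final) preincubated with peptides at 37 °C in 50 mM Tris-HCl pH 7.8, 20 mM CaCl2; BApNA added (1.22 mM final), 260 min at 37 °C, then OD405 read. Residual activity from enzyme-only and substrate-only controls; IC50 fitted and converted to Ki via Ki=IC50/(1+S/Km), Km measured separately for BApNA.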

[1] = Ki=IC50/(1+S/Km), Km 0.33 mM, read-out: Ki
[2] = trypsin 50 nM, BApNA 1.22 mM, read-out: IC50

- Ki [1]: 30 nM
- IC50 [2]: 130 nM
Compound: CC[C@H](C)[C@@H]1NC(=O)[C@@H]2CCCN2C(=O)[C@@H]2CCCN2C(=O)[C@H]([C@@H](C)CC)NC(=O)[C@H](CO)NC(=O)[C@H](CCCCN)NC(=O)[C@H]([C@@H](C)O)NC(=O)[C@H](Cc2ccccc2)NC(=O)[C@H](CCCNC(=N)N)NC(=O)CNC(=O)[C@@H](N)CSSC[C@@H](C(=O)N[C@@H](Cc2ccccc2)C(=O)O)NC1=O [BT52] (H-CGRFTKSIPPICF-OH; disulfide 1-12; N-terminus and C-terminus assumed)

Compound: CC[C@H](C)[C@@H]1NC(=O)[C@@H]2CCCN2C(=O)[C@@H]2CCCN2C(=O)[C@H]([C@@H](C)CC)NC(=O)[C@H](CO)NC(=O)[C@H](CCCCN)NC(=O)[C@H]([C@@H](C)O)NC(=O)[C@H](Cc2ccc(O)cc2)NC(=O)[C@H](CCCNC(=N)N)NC(=O)CNC(=O)[C@@H](N)CSSC[C@@H](C(=O)N[C@@H](Cc2ccccc2)C(=O)O)NC1=O [BT53] (H-CGRYTKSIPPICF-OH; disulfide 1-12; C-terminus assumed)
- IC50: 120 nM
- Ki: 30 nM
- inhibitory activity against trypsin (in words): good inhibitory activities against trypsin
- inhibitory activity against trypsin (in words) (listed as SEQ ID NO: 53): excellent trypsin inhibitory activities
- Residual trypsin activity (peptide 0.000098 μM): 104.2 ± 0.5%
- Residual trypsin activity (peptide 0.00098 μM): 108.9 ± 2.0%
- Residual trypsin activity (peptide 0.0098 μM): 106.0 ± 0.4%
- Residual trypsin activity (peptide 0.0488 μM): 87.4 ± 4.9%
- Residual trypsin activity (peptide 0.0585 μM): 84.9 ± 2.2%
- Residual trypsin activity (peptide 0.07317 μM): 75.2 ± 2.8%
- Residual trypsin activity (peptide 0.098 μM): 63.0 ± 1.9%
- Residual trypsin activity (peptide 0.98 μM): 0.5 ± 0.2%
- Residual trypsin activity (peptide 9.76 μM): 0.2 ± 0.0%
- Residual trypsin activity (peptide 97.56 μM): 0.0 ± 0.1%

- Ki [1]: 10 nM
- inhibitory activity against trypsin (in words) (listed as SEQ ID NO: 54): excellent trypsin inhibitory activities
- Residual trypsin activity (peptide 0.000098 μM): 101.0 ± 3.9%
- Residual trypsin activity (peptide 0.00098 μM): 99.2 ± 1.7%
- Residual trypsin activity (peptide 0.0098 μM): 99.9 ± 4.1%
- Residual trypsin activity (peptide 0.0488 μM): 65.8 ± 6.7%
- Residual trypsin activity (peptide 0.0585 μM): 58.4 ± 4.3%
- Residual trypsin activity (peptide 0.0780 μM): 24.3 ± 2.4%
- Residual trypsin activity (peptide 0.098 μM): 7.2 ± 2.4%
- Residual trypsin activity (peptide 0.98 μM): 0.1 ± 0.0%
- Residual trypsin activity (peptide 9.76 μM): −0.1 ± 0.0%
- IC50 [2]: 60 nM
Compound: CC[C@H](C)[C@@H]1NC(=O)[C@@H]2CCCN2C(=O)[C@@H]2CCCN2C(=O)[C@H]([C@@H](C)CC)NC(=O)[C@H](CO)NC(=O)[C@H](CCCCN)NC(=O)[C@H]([C@@H](C)O)NC(=O)[C@H](CCC(N)=O)NC(=O)[C@H](CCCNC(=N)N)NC(=O)CNC(=O)[C@@H](N)CSSC[C@@H](C(=O)N[C@@H](Cc2ccccc2)C(=O)O)NC1=O [BT54] (H-CGRQTKSIPPICF-OH; disulfide 1-12; C-terminus assumed)
- inhibitory activity against trypsin (in words): good inhibitory activities against trypsin

- inhibitory activity against trypsin (in words): excellent trypsin inhibitory activities
- Ki [1]: 60 nM
Compound: CC[C@H](C)[C@@H]1NC(=O)[C@@H]2CCCN2C(=O)[C@@H]2CCCN2C(=O)[C@H]([C@@H](C)CC)NC(=O)[C@H](CO)NC(=O)[C@H](CCCCN)NC(=O)[C@H]([C@@H](C)O)NC(=O)[C@H](CC(N)=O)NC(=O)[C@H](CCCNC(=N)N)NC(=O)CNC(=O)[C@@H](N)CSSC[C@@H](C(=O)N[C@@H](Cc2ccccc2)C(=O)O)NC1=O [BT55] (H-CGRNTKSIPPICF-OH; disulfide 1-12; C-terminus assumed)

- Ki [1]: 20 nM
- IC50 [2]: 110 nM
Compound: CC[C@H](C)[C@@H]1NC(=O)[C@@H]2CCCN2C(=O)[C@@H]2CCCN2C(=O)[C@H]([C@@H](C)CC)NC(=O)[C@H](CO)NC(=O)[C@H](CCCCN)NC(=O)[C@H]([C@@H](C)O)NC(=O)[C@H](Cc2c[nH]cn2)NC(=O)[C@H](CCCNC(=N)N)NC(=O)CNC(=O)[C@@H](N)CSSC[C@@H](C(=O)N[C@@H](Cc2ccccc2)C(=O)O)NC1=O [BT56] (H-CGRHTKSIPPICF-OH; disulfide 1-12; N-terminus and C-terminus assumed)

- inhibitory activity against trypsin (in words): excellent trypsin inhibitory activities
- Ki [1]: 30 nM
- IC50 [2]: 130 nM
Compound: CC[C@H](C)[C@@H]1NC(=O)[C@@H]2CCCN2C(=O)[C@@H]2CCCN2C(=O)[C@H]([C@@H](C)CC)NC(=O)[C@H](CO)NC(=O)[C@H](CCCCN)NC(=O)[C@H]([C@@H](C)O)NC(=O)[C@H](Cc2c[nH]c3ccccc23)NC(=O)[C@H](CCCNC(=N)N)NC(=O)CNC(=O)[C@@H](N)CSSC[C@@H](C(=O)N[C@@H](Cc2ccccc2)C(=O)O)NC1=O [BT57] (H-CGRWTKSIPPICF-OH; disulfide 1-12; C-terminus assumed)

- Ki [1]: 30 nM
- IC50 [2]: 120 nM
Compound: CC[C@H](C)[C@@H]1NC(=O)[C@@H]2CCCN2C(=O)[C@@H]2CCCN2C(=O)[C@H]([C@@H](C)CC)NC(=O)[C@H](CO)NC(=O)[C@H](CCCCN)NC(=O)[C@H]([C@@H](C)O)NC(=O)[C@H](CCC(=O)O)NC(=O)[C@H](CCCNC(=N)N)NC(=O)CNC(=O)[C@@H](N)CSSC[C@@H](C(=O)N[C@@H](Cc2ccccc2)C(=O)O)NC1=O [BT58] (H-CGRETKSIPPICF-OH; disulfide 1-12; N-terminus and C-terminus assumed)

- inhibitory activity against trypsin (in words): excellent trypsin inhibitory activities
- Ki [1]: 90 nM
Compound: CC[C@H](C)[C@@H]1NC(=O)[C@@H]2CCCN2C(=O)[C@@H]2CCCN2C(=O)[C@H]([C@@H](C)CC)NC(=O)[C@H](CO)NC(=O)[C@H](CCCCN)NC(=O)[C@H]([C@@H](C)O)NC(=O)CNC(=O)[C@H](CCCNC(=N)N)NC(=O)CNC(=O)[C@@H](N)CSSC[C@@H](C(=O)N[C@@H](Cc2ccccc2)C(=O)O)NC1=O [BT60] (H-CGRGTKSIPPICF-OH; disulfide 1-12)

- Ki [1]: 190 nM
Compound: CC[C@H](C)[C@@H]1NC(=O)[C@H](CO)NC(=O)[C@H](CCCNC(=N)N)NC(=O)[C@H]([C@@H](C)O)NC(=O)[C@@H](NC(=O)[C@@H](N)CCCNC(=N)N)CSSC[C@@H](C(=O)N[C@@H](Cc2c[nH]c3ccccc23)C(=O)O)NC(=O)[C@H](Cc2c[nH]cn2)NC(=O)[C@@H]2CCCN2C(=O)[C@@H]2CCCN2C1=O [BT61] (H-RCTRSIPPHCW-OH; disulfide 2-10; N-terminus and C-terminus assumed)

- Ki [1]: 10 nM
- IC50 [2]: 70 nM
Compound: CC[C@H](C)[C@@H]1NC(=O)[C@H](CO)NC(=O)[C@H](CCCCN)NC(=O)[C@H]([C@@H](C)O)NC(=O)[C@@H](NC(=O)[C@@H](N)CCCNC(=N)N)CSSC[C@@H](C(=O)N[C@@H](Cc2ccccc2)C(=O)O)NC(=O)[C@H](Cc2c[nH]cn2)NC(=O)[C@@H]2CCCN2C(=O)[C@@H]2CCCN2C1=O [BT62] (H-RCTKSIPPHCF-OH; disulfide 2-10; N-terminus and C-terminus assumed)

- Ki [1]: 20 nM
- IC50 [2]: 90 nM
Compound: CC[C@H](C)[C@@H]1NC(=O)[C@H](CO)NC(=O)[C@H](CCCCN)NC(=O)[C@H]([C@@H](C)O)NC(=O)[C@@H](NC(=O)[C@@H](N)CCCNC(=N)N)CSSC[C@@H](C(=O)N[C@@H](Cc2c[nH]cn2)C(=O)O)NC(=O)[C@H](CCC(N)=O)NC(=O)[C@@H]2CCCN2C(=O)[C@@H]2CCCN2C1=O [BT63] (H-RCTKSIPPQCH-OH; disulfide 2-10; N-terminus and C-terminus assumed)

- inhibitory activity against trypsin (in words): excellent trypsin inhibitory activities
- Ki [1]: 130 nM
Compound: CC(C)C[C@@H]1NC(=O)[C@H](CO)NC(=O)[C@H](CCCCN)NC(=O)[C@H]([C@@H](C)O)NC(=O)[C@@H](NC(=O)[C@@H](N)CCCNC(=N)N)CSSC[C@@H](C(=O)N[C@@H](CO)C(=O)O)NC(=O)[C@H](CCC(N)=O)NC(=O)[C@@H]2CCCN2C(=O)[C@@H]2CCCN2C1=O [BT65] (H-RCTKSLPPQCS-OH; disulfide 2-10; C-terminus assumed)

- inhibitory activity against trypsin (in words): higher trypsin inhibitory activities
- Ki [1]: 10 nM
- inhibitory activity against trypsin (in words) (listed as SEQ ID NO: 66): excellent trypsin inhibitory activities
- Residual trypsin activity (peptide 0.000098 μM): 107.0 ± 6.2%
- Residual trypsin activity (peptide 0.00098 μM): 104.7 ± 2.1%
- Residual trypsin activity (peptide 0.0098 μM): 106.2 ± 3.4%
- Residual trypsin activity (peptide 0.0488 μM): 66.8 ± 8.2%
- Residual trypsin activity (peptide 0.0585 μM): 55.7 ± 2.4%
- Residual trypsin activity (peptide 0.0780 μM): 13.9 ± 4.2%
- Residual trypsin activity (peptide 0.098 μM): 4.8 ± 0.7%
- Residual trypsin activity (peptide 0.98 μM): 0.1 ± 0.0%
- Residual trypsin activity (peptide 9.76 μM): 0.1 ± 0.0%
- IC50 [2]: 60 nM
Compound: CC[C@H](C)[C@@H]1NC(=O)[C@@H]2CCCN2C(=O)[C@@H]2CCCN2C(=O)[C@H]([C@@H](C)CC)NC(=O)[C@H](CO)NC(=O)[C@H](CCCCN)NC(=O)[C@H]([C@@H](C)O)NC(=O)[C@H](C)NC(=O)[C@H](CCCNC(=N)N)NC(=O)[C@@H]2CCCN2C(=O)[C@@H](N)CSSC[C@@H](C(=O)N[C@@H](Cc2ccccc2)C(=O)O)NC1=O [BT66] (H-CPRATKSIPPICF-OH; disulfide 1-12; C-terminus assumed)
